Test results: patent publication US20080004200A1, “Enzyme stabilization” (priority 2006, published 2008)
Where a SMILES comes first, the peptide text is derived from it. The star is where a group is joined. Moc = COC(=O)*

Tested on: Gram negative bacteria
Assay: Gram negative cocktail challenge test in inoculated standard liquid laundry detergent
Assay type: cell-based
Conditions: inhibitor 0.004% by weight in standard liquid laundry detergent; for Count (log viable cells): stored at 35° C.
Description: To determine if a compound is capable of at least inhibiting the growth of at least one Gram negative bacteria in the liquid detergent the following test is performed.
A mixture of Gram negative bacteria, also known as a Gram negative cocktail or cocktail, is prepared. The Gram negative cocktail comprises a mixture of Pseudomonas aeruginosa ATCC 9027, Pseudomonas fluorescens ATCC 13525, Burkholderia (Pseudomonas) cepacia ATCC 25416, Klebsiella oxytoca ATCC 13182, Escherichia coli ATCC 8739, Citrobacter freundii ATCC 8090 and Serratia liquefaciens ATCC 27592. The Gram negative bacterial cocktail is prepared by growing each organism individually on plates containing a growth medium and picking isolated colonies for preparation of the Gram negative cocktail. The growth medium is TSA (tryptic soy agar, available from Becton Dickinson). TSA contains per liter water: 15 g pancreatic digest of casein, 5 g enzymatic digest of soy bean meal, 5 g sodium chloride, and 15 g agar with the pH adjusted to 7.3±0.2 using hydrochloric acid, HCL (J. T. Baker).
The individually selected colonies are added to sterilized saline and adjusted to a McFarland standard of #2 (Available from bioMerieux, Inc.) to prepare a standardized saline suspension for the organism. This is repeated for each organism individually, thereby by preparing a standardized saline suspension for each organism. An equal volume (1 ml) of each standardized saline suspension of the following cocktail members are mixed together: Pseudomonas aeruginosa ATCC 9027, Pseudomonas fluorescens ATCC 13525, Burkholderia (Pseudomonas) cepacia ATCC 25416, Klebsiella oxytoca ATCC 13182, Escherichia coli ATCC 8739, Citrobacter freundii ATCC 8090 and Serratia liquefaciens ATCC 27592.
An inoculated liquid laundry detergent is prepared by the addition to 49.5 ml of the standard liquid laundry detergent, described in Table A below, of 0.5 ml of the Gram negative bacterial cocktail as prepared above. This standard liquid laundry detergent also contains from about 0.00001% to about 5%, by weight of the composition, of one or more of the tripeptide enzyme inhibitors described herein.
As the cocktail contains approximately 10^7 to 10^8 cfu/ml (colony forming units/ml); the resulting inoculum level in the inoculated liquid laundry detergent is 10^5 to 10^6 cfu/ml. The inoculated liquid laundry detergent is stored at 35° C., a relative humidity of about 60% and at standard pressure, i.e. 1 atmosphere. Samples of Iml are removed from the inoculated liquid laundry detergent at the following times, 1 day, 2 days, 7 days, 14 days, 21 days and 28 days. These 1 ml samples, are immediately neutralized by addition to a neutralizer, namely polyvalent universal neutralizer (PVUN) which contains (per liter distilled water): 30 g Polysorbate 80 (Available under the brand Tween 80, from VWR International), 5 g Sodium thiosulfate, Ig L-Histidine, Ig Peptone, 8.5 g Sodium chloride, 14.3 g Lecithin with the pH adjusted to 7.0±0.2 with HCL.
Each neutralized sample is then subjected to a serial dilution, to the 10^−5 dilution to allow full enumeration of the surviving microbial population. For example, 1 ml of sample is added to 9 ml of PVUN, resulting in a 1:10 dilution, or 10^−1 dilution. A 1 ml sample of this 1:10 dilution is then added to another 9 ml PVUN, resulting in a 1:100 dilution, or 10^−2 dilution, and so on. Serial dilutions are carried out to 10^−5. 1.0 ml of the various dilutions (10^−1 or 10^−5) are then either spread or pour plated on TSA (tryptic soy agar, Becton Dickinson) and are then incubated for 72 hours at 35° C.±2° C.
After incubation, the plates are counted and recorded as cfu/ml survival vs. time (days 1, 2, 7, 14, 21, and 28 days). Results are recorded as log viable cells on specified sampling days. […]

## COC(=O)N[C@H](C(=O)N[C@@H](C)C(=O)N[C@H](C=O)CC(C)C)C(C)C (Moc-Val-Ala-Leu-aldehyde)
Day 1, inoculum 10^5 to 10^6 cfu/ml
  Count (log viable cells): 4.7 log viable cells
Day 2
  Count (log viable cells): 4.0 log viable cells
Day 7
  Count (log viable cells): <0.1 log viable cells
Day 14
  Count (log viable cells): <0.1 log viable cells
Day 21
  Count (log viable cells): <0.1 log viable cells
Day 28
  Count (log viable cells): <0.1 log viable cells
  Growth of Gram negative bacteria in liquid laundry detergents: prevents the growth of Gram negative bacteria
